{"source": "BindingDB's records for doi:10.1124/jpet.103.049619", "about": "(University of Kansas, 2003)", "key": {"Histamine H1 receptor [1]": {"target": "Histamine H1 receptor (Cavia porcellus, UniProt P31389)", "sequence (P31389 whole entry)": "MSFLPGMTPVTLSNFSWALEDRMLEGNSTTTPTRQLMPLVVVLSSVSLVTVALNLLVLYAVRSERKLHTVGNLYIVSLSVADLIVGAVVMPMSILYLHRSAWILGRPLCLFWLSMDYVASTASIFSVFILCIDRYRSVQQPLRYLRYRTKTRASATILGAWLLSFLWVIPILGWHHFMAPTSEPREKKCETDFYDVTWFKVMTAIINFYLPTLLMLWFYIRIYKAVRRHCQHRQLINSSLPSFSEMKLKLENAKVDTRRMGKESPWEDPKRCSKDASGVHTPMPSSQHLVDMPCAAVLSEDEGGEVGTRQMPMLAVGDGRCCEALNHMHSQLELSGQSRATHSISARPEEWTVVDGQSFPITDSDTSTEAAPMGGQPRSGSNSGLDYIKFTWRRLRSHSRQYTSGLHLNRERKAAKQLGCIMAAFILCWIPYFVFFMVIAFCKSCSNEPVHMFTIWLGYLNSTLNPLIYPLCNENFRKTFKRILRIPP"}, "Histamine H1 receptor [2]": {"target": "Histamine H1 receptor (Homo sapiens, UniProt P35367)", "sequence (P35367 whole entry)": "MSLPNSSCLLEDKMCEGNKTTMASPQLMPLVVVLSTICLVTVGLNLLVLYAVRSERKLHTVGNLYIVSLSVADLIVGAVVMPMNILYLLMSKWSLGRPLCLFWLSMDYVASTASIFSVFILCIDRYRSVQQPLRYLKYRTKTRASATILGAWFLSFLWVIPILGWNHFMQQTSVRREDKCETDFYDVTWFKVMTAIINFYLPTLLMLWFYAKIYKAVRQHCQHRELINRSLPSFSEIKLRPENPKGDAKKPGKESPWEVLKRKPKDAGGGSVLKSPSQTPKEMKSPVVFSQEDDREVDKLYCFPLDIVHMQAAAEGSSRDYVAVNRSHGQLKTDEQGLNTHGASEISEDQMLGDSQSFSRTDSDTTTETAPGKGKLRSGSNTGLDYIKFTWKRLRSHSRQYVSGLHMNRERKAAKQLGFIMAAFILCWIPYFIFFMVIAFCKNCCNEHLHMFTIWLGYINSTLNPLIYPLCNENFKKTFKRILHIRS"}}}
{"smiles": "NCCc1nccs1", "note": "[2-(2-aminoethyl)thiazole]", "values": [{"measurement": "Ki", "setting": "Histamine H1 receptor [1]", "value": 8490, "unit": "nM"}]}
{"smiles": "NCCc1c[nH]c(-c2cccc(Cl)c2)n1", "note": "[2-(3-Chlorophenyl)histamine]", "values": [{"measurement": "Ki", "setting": "Histamine H1 receptor [2]", "value": 1780, "unit": "nM"}, {"measurement": "Ki", "setting": "Histamine H1 receptor [1]", "value": 600, "unit": "nM"}]}
{"smiles": "NCCc1c[nH]c(-c2cccc(I)c2)n1", "note": "[2-(3-Iodophenyl)histamine]", "values": [{"measurement": "Ki", "setting": "Histamine H1 receptor [2]", "value": 1760, "unit": "nM"}, {"measurement": "Ki", "setting": "Histamine H1 receptor [1]", "value": 610, "unit": "nM"}]}
{"smiles": "NCCc1c[nH]c(-c2cccc(Br)c2)n1", "note": "[2-[2-(3-bromophenyl)-1H-imidazol-4-yl]ethan-1-amine]", "values": [{"measurement": "Ki", "setting": "Histamine H1 receptor [2]", "value": 2220, "unit": "nM"}, {"measurement": "Ki", "setting": "Histamine H1 receptor [1]", "value": 700, "unit": "nM"}]}
{"smiles": "N=C(NCCCc1c[nH]cn1)NCCC(c1cccc(Cl)c1)c1ccccn1", "note": "(stereo unspecified) [BU-E 47]", "values": [{"measurement": "Ki", "setting": "Histamine H1 receptor [2]", "value": 255, "unit": "nM"}, {"measurement": "Ki", "setting": "Histamine H1 receptor [1]", "value": 53.9, "unit": "nM"}]}
{"smiles": "Cc1ccc(C(=CCN2CCCC2)c2ccccn2)cc1", "note": "[CAS_486-12-4]", "values": [{"measurement": "Ki", "setting": "Histamine H1 receptor [1]", "value": 1.15, "unit": "nM"}]}
{"smiles": "NC(=NCCC(c1ccc(F)cc1)c1ccccn1)NCCCc1cnc[nH]1", "note": "(stereo unspecified) [CAS_65895]", "values": [{"measurement": "Ki", "setting": "Histamine H1 receptor [2]", "value": 353, "unit": "nM"}, {"measurement": "Ki", "setting": "Histamine H1 receptor [1]", "value": 33.3, "unit": "nM"}]}
{"smiles": "CN(C)CCc1c[nH]c(CCC(c2ccccc2)c2ccccc2)n1", "note": "[N,N-Dimethyl-2-(3,3-diphenylpropyl)-1H-imidazole-4-(ethanamine)]", "values": [{"measurement": "Ki", "setting": "Histamine H1 receptor [2]", "value": 400, "unit": "nM"}, {"measurement": "Ki", "setting": "Histamine H1 receptor [1]", "value": 310, "unit": "nM"}]}
{"smiles": "CNCCc1cnc(CCC(c2ccccc2)c2ccccc2)[nH]1", "note": "[N-Methyl-2-(3,3-diphenylpropyl)-1H-imidazole-4-(ethanamine)]", "values": [{"measurement": "Ki", "setting": "Histamine H1 receptor [2]", "value": 370, "unit": "nM"}, {"measurement": "Ki", "setting": "Histamine H1 receptor [1]", "value": 290, "unit": "nM"}]}
